Experimental data reported in PubChem BioAssay AID623893 (Vanderbilt Specialized Chemistry Center, 2012).
The source made the active and inactive calls.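 Rule for the calls: active = fold change in agonist EC50 with compound of 2 or more, a potentiator, or 0.5 or less, a blocker; inactive = fold change strictly between 0.5 and 2.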

Molecular target: Metabotropic glutamate receptor 7 (Rattus norvegicus) (UniProt P35400)
Assay: mGlu7 L-AP4 response modulation check – cell-based, rat, thallium flux, L-AP4 agonist, selectivity assay for mGlu4 lead optimization, profiling panel (AID 623893)
Conditions: mGlu7 cells, at 10 µM

Metabotropic glutamate receptor 7 (Rattus norvegicus), sequence (P35400 whole entry, looked up): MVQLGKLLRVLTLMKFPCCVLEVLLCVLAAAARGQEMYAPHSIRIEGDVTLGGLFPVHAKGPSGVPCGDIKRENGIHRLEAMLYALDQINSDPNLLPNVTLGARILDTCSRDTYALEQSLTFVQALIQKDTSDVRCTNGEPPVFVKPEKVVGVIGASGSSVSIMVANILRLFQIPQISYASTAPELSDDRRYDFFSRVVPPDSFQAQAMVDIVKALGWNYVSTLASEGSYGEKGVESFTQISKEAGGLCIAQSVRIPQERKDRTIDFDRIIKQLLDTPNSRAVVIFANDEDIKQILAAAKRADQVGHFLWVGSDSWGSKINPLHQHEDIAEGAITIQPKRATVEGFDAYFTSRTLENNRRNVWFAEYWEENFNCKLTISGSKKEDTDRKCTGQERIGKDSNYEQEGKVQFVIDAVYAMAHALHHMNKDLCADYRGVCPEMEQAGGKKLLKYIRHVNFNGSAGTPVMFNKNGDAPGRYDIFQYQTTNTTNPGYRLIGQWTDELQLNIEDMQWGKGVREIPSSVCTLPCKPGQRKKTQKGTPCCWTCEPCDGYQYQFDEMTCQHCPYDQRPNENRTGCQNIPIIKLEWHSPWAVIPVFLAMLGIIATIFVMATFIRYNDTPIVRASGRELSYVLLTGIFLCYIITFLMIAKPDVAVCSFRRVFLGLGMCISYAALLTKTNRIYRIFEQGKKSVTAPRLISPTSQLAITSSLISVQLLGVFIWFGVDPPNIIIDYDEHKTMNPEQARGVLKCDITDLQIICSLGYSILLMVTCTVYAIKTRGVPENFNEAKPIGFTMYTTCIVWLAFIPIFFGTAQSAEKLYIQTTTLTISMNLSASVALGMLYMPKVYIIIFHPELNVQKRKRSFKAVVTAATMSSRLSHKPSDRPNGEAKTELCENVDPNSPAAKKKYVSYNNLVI

`O=C(Nc1cccc(Cl)c1)c1ccccn1` was tested, and the fold shift was 1.44 (inactive).
